Data taken from patent US20080200404A1, “Novel Antimalarial 9A-Carbamoyl-Aminoalkyl and 9A-Thiocarbamoyl-Aminoalkyl Azalides” (priority 2005, published 2008).
≈ marks a conversion by molar mass, not a printed value.

Key:
[1] = test system: Plasmodium falciparum TM91C235; assay: In vitro antimalarial [3H]-hypoxanthine incorporation assay, TM91C235; assay type: cell-based; settings: Plasmodium falciparum; P. falciparum TM91C235 (multiple drug resistant isolate), 72 hours exposure
From the text: (§1) The in vitro screens for intrinsic antimalarial activity were based on modifications of the procedures described by Desjardins R E, Canfield C J, Haynes J D, Chulay J D. (Quantitative assessment of antimalarial activity in vitro by a semiautomated microdilution technique. Antimicrob Agents Chemother. 1979 December; 16(6):710-8.), Chulay J D, Haynes J D, Diggs C L. (Plasmodium falciparum: Assessment of in vitro growth by [3H]hypoxanthine incorporation. Exp. Parasitol. 1983 55:138-146.), and Milhous W K, Weatherly N F, Bowdre J H, Desjardins R E. (In vitro activities of and mechanisms of resistance to antifol antimalarial drugs. Antimicrob Agents Chemother. 1985 April; 27(4):525-30.). The system was limited to the assessment of the intrinsic activity against the erythrocytic asexual life cycle (blood schizontocides). Two Plasmodium falciparum clones from CDC/Indochina III (W-2) and CDC/Sierra Leone I (D-6) (Oduola A M, Weatherly N F, Bowdre J H, Desjardins R E. Plasmodium falciparum: cloning by single-erythrocyte micromanipulation and heterogeneity in vitro. Exp Parasitol. 1988 66(1):86-95.) were used for all assays. TM91C235, a multiple drug resistant isolate from Thailand, was used for the prescreening assay. W-2 is resistant to chloroquine, quinine, and pyrimethamine and susceptible to mefloquine. D-6 tends to be more resistant to mefloquine and susceptible to chloroquine, quinine, and pyrimethamine. All documents cited in this paragraph are incorporated by reference in their entirety.
(§2) All parasites were maintained in continuous long term cultures in RPMI-1640 medium supplemented with 6% washed human A positive (A+)(erythrocytes, 25 mM Hepes, […], and 10% heat inactivated A+human plasma or ALBUMAX® (lipid-rich bovine serum albumin; Invitrogen, Carlsbad, Calif.). All cultures and assays were conducted at 37° C. under an atmosphere of 5% CO2 and 5% O2, with a balance of N2.
The prescreening assay uses TM91C235 diluted at a 0.4% parasitemia in a 1% hematocrit in folic acid free and p-aminobenzoic acid free media RPMI-1640 and ALBUMAX®. One mg of the compound is typically dissolved in 100 μl of dimethyl sulfoxide (DMSO). The compound is further diluted in culture medium (FF) with ALBUMAX® for the first initial starting concentration. The rest of the stock drug solution was kept at −70° C. The isolate was preexposed, in duplicate, at three concentrations (25,000 ng/ml, 2,500 ng/ml, and 25 ng/ml) of the test compound for 48 hr in a 96-well microtiter plate (MTP) using the BIOMEK® 2000 automated laboratory workstation. Each MTP contains chloroquine as control to assess the relative activity of the compound and to monitor the response of TM91C235.
(§3) After the preincubation, [^3H]-hypoxanthine was added to each well of the MTP. (The assay relies on the incorporation of radiolabeled hypoxanthine by the parasites, which indicates reproduction, and inhibition of isotope incorporation was attributed to activity of known or candidate antimalarial drugs). After 72 hr of total incubation time, the MTP were frozen to lyse the erythrocytes and parasites. The parasite DNA was recovered by harvesting the lysate onto glass-fiber filter plates using a Packard FilterMate™ Cell Harvester. The radioactivity was counted on a Packard TopCount™ microplate scintillation counter. The results were recorded as counts per minutes (CPM) per well at each drug concentration divided by the arithmetic mean of the CPM from the three untreated infection parasite control wells.
The serial dilution assay was conducted using the same assay conditions and stock solution of the compound used for the preliminary screen, described above. Both the D-6 and the W-2 clones were used. The compounds were diluted two-fold over 11 different concentration ranges with a starting concentration that was based on the preliminary screen. […]

[2] = test system: Plasmodium falciparum clone CDC/Sierra Leone I (D-6); assay: In vitro antimalarial [3H]-hypoxanthine incorporation serial dilution assay, D6; assay type: cell-based; settings: Plasmodium falciparum, D6, 72 h, P. falciparum D6, 72 hours exposure; read-out: IC50 D6
From the text: as §1, §2, §3
The serial dilution assay was conducted using the same assay conditions and stock solution of the compound used for the preliminary screen, described above. Both the D-6 and the W-2 clones were used. The compounds were diluted two-fold over 11 different concentration ranges with a starting concentration that was based on the preliminary screen. For each drug, the concentration response profile was determined and 50% inhibitory concentrations (IC50) were determined by using a non-linear, logistic dose response analysis program. […] For each assay, the IC50 for each clone was determined against the known antimalarials chloroquine and mefloquine. These control values established the compound's relative parasite susceptibility profile compared to known antimalarials. […]
The in vitro potency of the compounds has been compared with that of azithromycin to better gauge compounds suitable for further testing. As described above, parasites were exposed for 72 hours. Data from the in vitro potency tests of azithromycin against the three parasite strains have been averaged, and these numbers have been used for identification of “active” macrolide compounds.

| Structure (SMILES) | IC50 [1] [µg/mL] | IC50 [2] [µg/mL] |
| --- | --- | --- |
| CC[C@H]1OC(=O)[C@H](C)[C@@H](O[C@H]2C[C@@](C)(OC)[C@@H](O)[C@H](C)O2)[C@H](C)[C@@H](O[C@@H]2O[C@H](C)C[C@H](N(C)C)[C@H]2O)[C@](C)(O)C[C@@H](C)CN(CCCNC(=O)Nc2ccc(C)cc2)[C@H](C)[C@@H](O)[C@]1(C)O [Example 73] | 0.128 (≈ 0.139 µM) | 0.305 (≈ 0.33 µM) |
| CC[C@H]1OC(=O)[C@H](C)[C@@H](O[C@H]2C[C@@](C)(OC)[C@@H](O)[C@H](C)O2)[C@H](C)[C@@H](O[C@@H]2O[C@H](C)C[C@H](N(C)C)[C@H]2O)[C@](C)(O)C[C@@H](C)CN(CCCNC(=S)NCc2ccc3c(c2)CCC3)[C@H](C)[C@@H](O)[C@]1(C)O.O=CO [Example 117] | 0.223 | 0.329 |
| CC[C@H]1OC(=O)[C@H](C)[C@@H](O[C@H]2C[C@@](C)(OC)[C@@H](O)[C@H](C)O2)[C@H](C)[C@@H](O[C@@H]2O[C@H](C)C[C@H](N(C)C)[C@H]2O)[C@](C)(O)C[C@@H](C)CN(CCCNC(=O)NC(C)(C)CC(C)(C)C)[C@H](C)[C@@H](O)[C@]1(C)O.O=CO [Example 78] | 0.182 | 0.267 |
| CC[C@H]1OC(=O)[C@H](C)[C@@H](O[C@H]2C[C@@](C)(OC)[C@@H](O)[C@H](C)O2)[C@H](C)[C@@H](O[C@@H]2O[C@H](C)C[C@H](N(C)C)[C@H]2O)[C@](C)(O)C[C@@H](C)CN(CCCNC(=S)NC2CCCCCCCCCCC2)[C@H](C)[C@@H](O)[C@]1(C)O.O=CO [Example 116] | 0.149 | 0.281 |
| CC[C@H]1OC(=O)[C@H](C)[C@@H](O[C@H]2C[C@@](C)(OC)[C@@H](O)[C@H](C)O2)[C@H](C)[C@@H](O[C@@H]2O[C@H](C)C[C@H](N(C)C)[C@H]2O)[C@](C)(O)C[C@@H](C)CN(CCCNC(=O)Nc2ccc(C)cc2C)[C@H](C)[C@@H](O)[C@]1(C)O.O=CO [Example 75] | 0.229 | 0.479 |
| CC[C@H]1OC(=O)[C@H](C)[C@@H](O[C@H]2C[C@@](C)(OC)[C@@H](O)[C@H](C)O2)[C@H](C)[C@@H](O[C@@H]2O[C@H](C)C[C@H](N(C)C)[C@H]2O)[C@](C)(O)C[C@@H](C)CN(CCCNC(=S)Nc2ccc(OCc3ccccc3)cc2)[C@H](C)[C@@H](O)[C@]1(C)O.O=CO [Example 115] | 0.172 | 0.269 |
| CC[C@H]1OC(=O)[C@H](C)[C@@H](O[C@H]2C[C@@](C)(OC)[C@@H](O)[C@H](C)O2)[C@H](C)[C@@H](O[C@@H]2O[C@H](C)C[C@H](N(C)C)[C@H]2O)[C@](C)(O)C[C@@H](C)CN(CCCNC(=O)Nc2ccc(F)c(F)c2)[C@H](C)[C@@H](O)[C@]1(C)O.O=CO [Example 76] | 0.126 | 0.298 |
| CC[C@H]1OC(=O)[C@H](C)[C@@H](O[C@H]2C[C@@](C)(OC)[C@@H](O)[C@H](C)O2)[C@H](C)[C@@H](O[C@@H]2O[C@H](C)C[C@H](N(C)C)[C@H]2O)[C@](C)(O)C[C@@H](C)CN(CCCNC(=O)NCC2CCCCC2)[C@H](C)[C@@H](O)[C@]1(C)O [Example 74] | 0.133 (≈ 0.142 µM) | 0.568 (≈ 0.609 µM) |
| CC[C@H]1OC(=O)[C@H](C)[C@@H](O[C@H]2C[C@@](C)(OC)[C@@H](O)[C@H](C)O2)[C@H](C)[C@@H](O[C@@H]2O[C@H](C)C[C@H](N(C)C)[C@H]2O)[C@](C)(O)C[C@@H](C)CN(CCCNC(=O)Nc2cc(C(=O)OC)cc(C(=O)OC)c2)[C@H](C)[C@@H](O)[C@]1(C)O [Example 72] | 0.422 (≈ 0.411 µM) | 0.665 (≈ 0.648 µM) |
| CC[C@H]1OC(=O)[C@H](C)[C@@H](O[C@H]2C[C@@](C)(OC)[C@@H](O)[C@H](C)O2)[C@H](C)[C@@H](O[C@@H]2O[C@H](C)C[C@H](N(C)C)[C@H]2O)[C@](C)(O)C[C@@H](C)CN(CCCNC(=O)Nc2ccc(Cl)cc2)[C@H](C)[C@@H](O)[C@]1(C)O.O=CO [Example 77] | 0.0896 | 0.186 |
| CC[C@H]1OC(=O)[C@H](C)[C@@H](O[C@H]2C[C@@](C)(OC)[C@@H](O)[C@H](C)O2)[C@H](C)[C@@H](O[C@@H]2O[C@H](C)C[C@H](N(C)C)[C@H]2O)[C@](C)(O)C[C@@H](C)CN(CCCNC(=O)Nc2cccc(SC)c2)[C@H](C)[C@@H](O)[C@]1(C)O [Example 71] | 0.131 (≈ 0.137 µM) | 0.318 (≈ 0.332 µM) |

Now from value to molecule:

| IC50 [1] [µg/mL] | IC50 [2] [µg/mL] | Structure (SMILES) |
| --- | --- | --- |
| 0.0679 (≈ 0.0623 µM) | 0.135 (≈ 0.124 µM) | CCOC(=O)CCN(CCCN1C[C@H](C)C[C@@](C)(O)[C@H](O[C@@H]2O[C@H](C)C[C@H](N(C)C)[C@H]2O)[C@@H](C)[C@H](O[C@H]2C[C@@](C)(OC)[C@@H](O)[C@H](C)O2)[C@@H](C)C(=O)O[C@H](CC)[C@@](C)(O)[C@H](O)[C@H]1C)C(=O)NC(C)c1cccc2ccccc12 (stereo partly shown) [Example 163] |
| 0.054 (≈ 0.0505 µM) | 0.142 (≈ 0.132 µM) | CCOC(=O)CCN(CCCN1C[C@H](C)C[C@@](C)(O)[C@H](O[C@@H]2O[C@H](C)C[C@H](N(C)C)[C@H]2O)[C@@H](C)[C@H](O[C@H]2C[C@@](C)(OC)[C@@H](O)[C@H](C)O2)[C@@H](C)C(=O)O[C@H](CC)[C@@](C)(O)[C@H](O)[C@H]1C)C(=S)NCCCc1ccccc1 [Example 161, 9-Deoxo-9-dihydro-9a-{N′-[β-(ethoxycarbonyl)ethyl]-N′-[γ-(phenylpropyl)thiocarbamoyl]-γ-aminopropyl}-9a-aza-9a-homoerythromycin A] |
| 0.0693 (≈ 0.0665 µM) | 0.104 (≈ 0.1 µM) | CCOC(=O)CCN(CCCN1C[C@H](C)C[C@@](C)(O)[C@H](O[C@@H]2O[C@H](C)C[C@H](N(C)C)[C@H]2O)[C@@H](C)[C@H](O[C@H]2C[C@@](C)(OC)[C@@H](O)[C@H](C)O2)[C@@H](C)C(=O)O[C@H](CC)[C@@](C)(O)[C@H](O)[C@H]1C)C(=S)NCc1ccccc1 [Example 162, 9-Deoxo-9-dihydro-9a-{N′-[β-(ethoxycarbonyl)ethyl]-N′-benzylthiocarbamoyl-γ-aminopropyl]-9a-aza-9a-homoerythromycin A] |
| 0.128 (≈ 0.151 µM) | 0.543 (≈ 0.639 µM) | CC[C@H]1OC(=O)[C@H](C)[C@@H](O)[C@H](C)[C@@H](O[C@@H]2O[C@H](C)C[C@H](N(C)C)[C@H]2O)[C@](C)(O)C[C@@H](C)CN(CCCN(CCC#N)C(=S)NCCc2ccccc2)[C@H](C)[C@@H](O)[C@]1(C)O [Example 170] |
| 0.0572 (≈ 0.055 µM) | 0.127 (≈ 0.122 µM) | CC[C@H]1OC(=O)[C@H](C)[C@@H](O[C@H]2C[C@@](C)(OC)[C@@H](O)[C@H](C)O2)[C@H](C)[C@@H](O[C@@H]2O[C@H](C)C[C@H](N(C)C)[C@H]2O)[C@](C)(O)C[C@@H](C)CN(CCCN(CCC(N)=O)C(=S)NCCCc2ccccc2)[C@H](C)[C@@H](O)[C@]1(C)O [Example 167, 9-Deoxo-9-dihydro-9a-{N′-(β-amidoethyl)-N′-[γ-(phenylpropyl)thiocarbamoyl]-γ-aminopropyl}-9a-aza-9a-homoerythromycin A] |
| 0.056 (≈ 0.055 µM) | 0.222 (≈ 0.218 µM) | CC[C@H]1OC(=O)[C@H](C)[C@@H](O[C@H]2C[C@@](C)(OC)[C@@H](O)[C@H](C)O2)[C@H](C)[C@@H](O[C@@H]2O[C@H](C)C[C@H](N(C)C)[C@H]2O)[C@](C)(O)C[C@@H](C)CN(CCCNC(=S)NC(c2ccccc2)c2ccccc2)[C@H](C)[C@@H](O)[C@]1(C)O [Example 129] |
